Earlier results, collected in article PMC2711878 (ACS chemical biology, 2009).

Key:
[1] = target: monofunctional P. falciparum WT DHFR
[2] = target: P. falciparum N51I/C59R/S108N/I164L DHFR
[3] = target: P. falciparum double mutant C59R/S108N DHFR
[4] = in vivo

| Structure (SMILES) | Ki value, WT DHFR [1] | Ki value, quadruple mutant DHFR [2] | Ki value, double mutant DHFR [3] | oral bioavailability [4] | Ki ([1]; read-out: Ki, WT DHFR, monofunctional enzyme) [nM] | Ki, fold less inhibitory than WT, quadruple mutant ([2]; N51I/C59R/S108N/I164L, monofunctional enzyme) [fold] | Ki, fold less inhibitory than WT, double mutant ([3]; C59R/S108N, monofunctional enzyme) [fold] |
| --- | --- | --- | --- | --- | --- | --- | --- |
| CC1(C)N=C(N)N=C(N)N1OCCCOc1cc(Cl)c(Cl)cc1Cl [WR99210] | sub-nanomolar | sub-nanomolar | sub-nanomolar | poor | – | – | – |
| CCc1nc(N)nc(N)c1-c1ccc(Cl)cc1 [pyrimethamine] | – | – | – | – | 1.5 | > 500 | 50 |
